Laboratory results published in article PMC12147034, “Identification of alkynyl nicotinamide HSN748 as a RET solvent-front mutant inhibitor with intracranial efficacy” (RSC Medicinal Chemistry, 2025).
Like-named read-outs stand apart in the source and are kept apart here.

Columns and labels:
B/KR(G810C) CDX tumors = assay: Subcutaneous B/KR(G810C) CDX tumor study; format: in vivo, mice; settings: 25 mg kg^-1, qd; for effect on s.c. B/KR(G810C) tumor growth: mice; for tumor sizes at necropsy and RET phosphorylation in tumor lysates: dissected tumors, immunoblotting
Procedure: Fig. 2 Anti-tumor activity of alkynyl nicotinamide compounds on subcutaneous […]. Mice with tumors (6 mice/group) were treated with indicated compound (25 mg kg^−1, qd) or vehicle by oral gavage. The vehicle-treated mice were as reported[13] and were performed in parallel with other treatments in the same experiment. (A) Tumor dimensions were measured with a caliper and the sizes were calculated as tumor size = (length × width × width)/2. The data are mean ± SD. (B) Mouse body weights were measured on the indicated days. (C) Images of dissected tumors collected at necropsy. (D) Immunoblotting of tumor tissue samples with the indicated antibodies. […] The measure "Body weight" comes from the axis title.
All animal procedures were performed in accordance with the Guidelines for Care and Use of Laboratory Animals of University of Oklahoma Health Sciences, Purdue University, or the MD Anderson Cancer Center and approved by the Animal Ethics Committee of University of Oklahoma Health Sciences, Purdue University, or the MD Anderson Cancer Center. B/KR(G810C) cells were tested free of mycoplasma and mouse pathogens. Subcutaneous B/KR(G810C) CDX experiment was performed in parallel with other compounds reported previously.[13] Briefly, B/KR(G810C) cells (1 × 10^7 cells/0.1 ml per each) were inoculated s.c. into the right flank of 5-week-old female SHO mice (Charles Rivers, Wilmington, MA, USA). After measurable tumors were formed, mice were treated with test compounds or vehicle by oral gavage as specified in Fig. 2. Tumor size and animal body weight were measured with a caliper and a scale as described.[8,13]

[1] = In vivo pharmacokinetics in rats; set-up: species or system rat; settings: for Vd/F: read-out: Vss/F
Procedure: For compound HSND19, male SD rats received an intravenous (IV) dose of 2 mg kg^−1 and an oral (PO) dose of 10 mg kg^−1. Both formulations were prepared in 10% DMSO/90% (20% HP-β-CD in water, w/w). Blood samples were collected at 0.25, 0.5, 1, 2, 4, 8, and 24 hours post-dosing. For compound HSN748, male SD rats received oral doses of 20, 50, and 100 mg kg^−1 in a solution of 0.5% methylcellulose (4000 cp)/0.1 M citrate buffer (pH 4.5). Blood samples were collected at 0.25, 0.5, 1, 2, 4, 6, 8, and 24 hours post-dosing. For IV administration, male CD1 mice received 2 mg kg^−1 prepared with 5% DMSO/5% Tween80/40% PEG400/50% PBS, with sampling at 0.083, 0.25, 0.5, 1, 2, 4, 8, and 24 hours.
In oral PK studies, blood samples were collected at each time point, with a total of 3 animals per study. In IV studies, animals were euthanized after blood collection at each time point to collect brain tissue, using a total of 21 animals per study. Whole blood samples were collected in heparinized tubes and centrifuged to separate plasma. Brain samples were rinsed, weighed, and immediately frozen in liquid nitrogen, and stored at −80 °C until analysis. The PK studies were conducted by Pharmaron (Beijing, China). Animal procedures were performed in accordance with the Guidelines for Care and Use of Laboratory Animals of Pharmaron (Beijing, China) and approved by the Animal Ethics Committee of Pharmaron (Beijing, China).
The mean concentration-time profiles were analyzed using Phoenix WinNonlin (version 8.4; Certara USA, Inc., Princeton, NJ) to calculate standard PK parameters, including the area under the curve from zero to infinity (AUC), bioavailability (F), clearance, volume of distribution, and half-life (t1/2).

[2] = male, Sprague-Dawley, plasma, Rat, PO, 20 mg kg^-1
[3] = male, Sprague-Dawley, plasma, Rat, PO, 50 mg kg^-1
[4] = male, Sprague-Dawley, plasma, Rat, PO, 100 mg kg^-1
[5] = male, Sprague-Dawley, rat, plasma, po, oral PK, stated as a range across doses / compounds, read-out: elimination half-life
[6] = male, Sprague-Dawley, plasma, Rat, IV, 2 mg kg^-1
[7] = male, Sprague-Dawley, plasma, Rat, PO, 10 mg kg^-1

Structure (SMILES): CN1CCN(Cc2ccc(NC(=O)c3cncc(C#Cc4cnc5cccnn45)c3)cc2C(F)(F)F)CC1 [HSN748]
- effect on s.c. B/KR(G810C) tumor growth (B/KR(G810C) CDX tumors; oral gavage): caused tumor regression
- tumor sizes at necropsy and RET phosphorylation in tumor lysates (B/KR(G810C) CDX tumors): more effective in reducing tumor sizes and inhibiting RET phosphorylation
- AUCPlasma/dose ([1]; Rat, PO, 20 mg kg^-1): 376.3 ng h ml^-1 per mg kg^-1
- AUCPlasma/dose ([1]; Rat, PO, 50 mg kg^-1): 355.7 ng h ml^-1 per mg kg^-1
- AUCPlasma/dose ([1]; Rat, PO, 100 mg kg^-1): 335.5 ng h ml^-1 per mg kg^-1
- AUC ([1]; male, SD, plasma, Rat, PO, 20 mg kg^-1, read-out: AUCPlasma (converted)): 7520 ng·h/mL
- Tmax ([1]; male, SD, plasma, Rat, PO, 20 mg kg^-1, read-out: Tmax): 4 h
- AUC ([1]; male, SD, plasma, Rat, PO, 50 mg kg^-1, read-out: AUCPlasma (converted)): 17800 ng·h/mL
- Tmax ([1]; male, SD, plasma, Rat, PO, 50 mg kg^-1, read-out: Tmax): 4 h
- AUC ([1]; male, SD, plasma, Rat, PO, 100 mg kg^-1, read-out: AUCPlasma (converted)): 33500 ng·h/mL
- Tmax ([1]; male, SD, plasma, Rat, PO, 100 mg kg^-1, read-out: Tmax): 2 h
- CL/F [1, 2]: 44.3 mL/min/kg
- Cmax [1, 2]: 911 ng/mL
- Vd/F [1, 2]: 19.3 L/kg
- CL/F [1, 3]: 46.8 mL/min/kg
- Cmax [1, 3]: 1830 ng/mL
- Vd/F [1, 3]: 23.4 L/kg
- CL/F [1, 4]: 49.7 mL/min/kg
- Cmax [1, 4]: 3330 ng/mL
- Vd/F [1, 4]: 28.9 L/kg
- Tmax ([1]; male, Sprague-Dawley, plasma, Rat, oral, across 20, 50 and 100 mg kg^-1, read-out: time of peak plasma concentrations postdose): 2 to 4 h
- half-life ([1]; male, Sprague-Dawley, rat, plasma, po, 20 mg/kg, Rat, PO, 20 mg kg^-1, read-out: t1/2 (converted)): 3.05 h
- half-life ([1]; male, Sprague-Dawley, rat, plasma, po, 50 mg/kg, Rat, PO, 50 mg kg^-1, read-out: t1/2 (converted)): 4.26 h
- half-life ([1]; male, Sprague-Dawley, rat, plasma, po, 100 mg/kg, Rat, PO, 100 mg kg^-1, read-out: t1/2 (converted)): 5.84 h
- half-life [1, 5]: 3 to 6 h

Structure (SMILES): CCOc1ccc2ncc(C#Cc3cncc(C(=O)Nc4ccc(CN5CCN(C)CC5)c(C(F)(F)F)c4)c3)n2n1 [HSND14, 5-((6-Ethoxyimidazo[1,2-b]pyridazin-3-yl)ethynyl)-N-(4-((4-methylpiperazin-1-yl)methyl)-3-(trifluoromethyl)phenyl)nicotinamide]
- effect on s.c. B/KR(G810C) tumor growth (B/KR(G810C) CDX tumors; oral gavage): caused tumor regression
- weight loss (B/KR(G810C) CDX tumors; oral gavage, mice with s.c. B/KR(G810C) tumors): Weight loss was observed
- tumor sizes at necropsy and RET phosphorylation in tumor lysates (B/KR(G810C) CDX tumors): more effective in reducing tumor sizes and inhibiting RET phosphorylation

Structure (SMILES): Cc1n[nH]c2ncc(C#Cc3cncc(C(=O)Nc4ccc(CN5CCN(C)CC5)c(C(F)(F)F)c4)c3)cc12 [HSND19, 5-((3-Methyl-1H-pyrazolo[3,4-b]pyridin-5-yl)ethynyl)-N-(4-((4-methylpiperazin-1-yl)methyl)-3-(trifluoromethyl)phenyl)nicotinamide]
- AUCBrain ([1]; Rat, IV, 2 mg kg^-1): 275 ng·h/mL
- peak brain concentration ([1]; Rat, IV, 2 mg kg^-1): 25.5 ng/mL
- t1/2 ([1]; Rat, PO, 10 mg kg^-1): 3.7 h
- Kp ([1]; male, Sprague-Dawley, brain and plasma, Rat, IV, 2 mg kg^-1, read-out: brain-to-plasma partition coefficient (Kp), AUCbrain/AUCPlasma): 0.2
- Cmax [1, 6]: 308 ng/mL
- clearance [1, 6]: 24 mL/min/kg
- AUC ([1]; male, Sprague-Dawley, plasma, Rat, IV, 2 mg kg^-1, read-out: AUCplasma): 1390 ng·h/mL
- Tmax ([1]; male, Sprague-Dawley, plasma, Rat, IV, 2 mg kg^-1, read-out: Tmax): 0.25 h
- Vd ([1]; male, Sprague-Dawley, plasma, Rat, IV, 2 mg kg^-1, read-out: Vss): 7.1 L/kg
- CL/F [1, 7]: 95 mL/min/kg
- Cmax [1, 7]: 182 ng/mL
- AUC ([1]; male, Sprague-Dawley, plasma, Rat, PO, 10 mg kg^-1, read-out: AUCplasma): 1760 ng·h/mL
- Tmax ([1]; male, Sprague-Dawley, plasma, Rat, PO, 10 mg kg^-1, read-out: Tmax): 4 h
- Vd/F [1, 7]: 45.1 L/kg
- half-life ([1]; male, Sprague-Dawley, rat, plasma, iv, 2 mg/kg, Rat, IV, 2 mg kg^-1, read-out: t1/2 (converted)): 3.6 h
- bioavailability ([1]; male, Sprague-Dawley, rat, plasma, po, 10 mg/kg, 10 mg kg^-1): ~25%
- half-life ([1]; male, Sprague-Dawley, rat, plasma, po, 10 mg/kg, Rat, PO, 10 mg kg^-1, read-out: t1/2 (converted)): 3.6 h
- half-life [1, 5]: 3 to 6 h
